In patent US20070042995A1, “Use of acetyl-d-aminoglycosamine in treatment of local lesions and systematic symptoms related to infections of virus or bacteria” (Third Military Medical University , Chinese People …, priority 2003, published 2007):

Columns and labels:
[1] = system: Pseudomonas aeruginosa, serotype 8; experiment: Animal test of controlling local lesions and systemic symptoms caused by infection of microorganism; assay type: in vivo, rabbits; conditions: 10% aqueous solution i.v., 2 ml, 3 times per day, 3 days; for rabbits survived: of 10 rabbits
Procedure: 10 rabbits were used in tests. The rabbits were administered with a culture of Gram-negative bacteria (Pseudomonas aeruginosa, serotype 8, wherein the bacterial number in the culture is about 3×10^11) in a dose of 10 ml per day for consecutive 3 days. […] The rabbits were intravenously administered with N-acetyl-D-glucosamine (10% aqueous solution) a dose of 2 ml every time, 3 times per day, for consecutive 3 days. […] In the test group, all 10 rabbits survived, while in the control group, 8/10 rabbits of the control group died within one week, and only 2 rabbits survived.
When N-acetyl-D-glucosamine was replaced with N-acetyl-D-glucosamine hydrochloride in the tests (other conditions were not changed), 7/10 rabbits of test group survived.

B16 tumor cells [2] = experiment: Animal test of regulating micro-heterology variation (B16 tumor cells inoculated in rats); assay type: in vivo; conditions: of 50 rats; 5% aqueous solution i.p., 1 ml, 3 times per day, 7 days
From the text: In control group without the administration of the compound of formula (1), many proliferative corpuscles appeared in at least 40 among 50 rats within 1-3 days after the tumor cells were inoculated; many immature cells appeared within 3-5 days; and visible solid tumors finally appeared within about 10 days.

[3] = in vivo
From the text: The toxicological test of the compound of formula (I) includes: • 1. Acute toxicity test: including tests of oral administration, intravenous injection administration, and maximum limit amount for administration; • 2. Ames test; • 3. Micronucleus test of mouse bone marrow cell; • 4. Abnormality test of mouse sperm; • 5. Aberration test of mouse testis chromosome; • 6. Chronic lethal test; • 7. Sub-chronic toxicity (feed for 90 days) test; • 8. Traditional deformity-inducing test.

Proteus Mirabilis = experiment: Promoting wave test (bio-wave model); assay type: cell-based; conditions: final concentration 0.5%, 37° C., 9 hours
From the text: 1. Experimental Materials and Method: 1.1 Sample: Pure Compound of Formula (I) 1.2 Experimental Materials: • Strain: Proteus Mirabilis that meets the following biochemical reaction characteristics; dynamics (+), urease (+), lactose (−), glucose (+), H2S (−), phenylalanine deaminase (+). • Culture medium; modified LB culture medium (components: 1% tryptones, 0.5% yeast extract, 1% sodium chloride, 0.1% glucose, 0.002% TTC, and pH=7.2 to 7.4). 1.3 Experimental Method: • Control sample: the Proteus Mirabilis were inoculated at the center of LB plate, incubating at 37° C. for 9 hours; • Test sample: the compound of formula (I) with a final concentration of 0.5% was added to the LB plate, then the Proteus Mirabilis were inoculated by the same method, and cultured at 37° C. for 9 hours. 2. […] This wave-promoting function may explain the effects of using N-acetyl-D-glucosamine or pharmaceutically acceptable salts thereof for treating and controlling local lesions and systematic symptoms caused by infections of virus or bacteria.

B16 tumor cells [4] = experiment: Cytological test of regulating micro-heterology variation; assay type: cell-based; conditions: final concentration 1 g/100 ml, incomplete 1640 media, cultured more than 48 hours
Procedure: Conventional incomplete 1640 culture media were used for cell culture, and B16 tumor cells (commercially obtained from the tumor cell library of Shanghai Institute of Cytobiology) were inoculated on said media. After being continuously cultured for more than 48 hours, the micro-heterology variation of cells and the control effects of N-acetyl-D-glucosamine thereon were observed under a condition where metabolic wastes affected the growth environment. […] The control cells cultured without N-acetyl-D-glucosamine could not proliferate on the same culture media under same conditions.

## CC(=O)N[C@H]1C(O)O[C@H](CO)[C@@H](O)[C@@H]1O.Cl (stereo partly drawn) [N-acetyl-D-glucosamine hydrochloride]
[1]
  rabbits survived: 7/10

## CC(=O)N[C@@H]1[C@@H](O)[C@H](O)[C@@H](CO)O[C@H]1O [N-acetyl-D-glucosamine]
B16 tumor cells [2]
  number of rats in which solid tumor did not appear: 45 rats
[3]
  dosage at which acute toxicosis reaction had not appeared: more than 2 g/kg
Proteus Mirabilis
  bio-wave pattern of colony growth on LB plate: not only concentric rings with an interval of 3 hours, but also many fine waves on each ring
[1]
  inflammation of nasal mucosa and respiratory tract: inflammations were alleviated
  rabbits survived: 10 rabbits
[1]; after one week
  systemic toxic symptoms: symptoms were alleviated
B16 tumor cells [4]
  cell proliferation under metabolic waste conditions: the cell number stably increased with the culture time
